Assay results as given in ChEMBL document CHEMBL1909046, “DrugMatrix in vitro pharmacology data”.

Legend:
[1] = target: T1, C-C chemokine receptor type 4 (Homo sapiens, UniProt P51679); type: cell membranes, Membrane; conditions: chem-1; further: in other assays of this panel Not Active means under 50% inhibition at 10 µM
T1 sequence (P51679 whole entry): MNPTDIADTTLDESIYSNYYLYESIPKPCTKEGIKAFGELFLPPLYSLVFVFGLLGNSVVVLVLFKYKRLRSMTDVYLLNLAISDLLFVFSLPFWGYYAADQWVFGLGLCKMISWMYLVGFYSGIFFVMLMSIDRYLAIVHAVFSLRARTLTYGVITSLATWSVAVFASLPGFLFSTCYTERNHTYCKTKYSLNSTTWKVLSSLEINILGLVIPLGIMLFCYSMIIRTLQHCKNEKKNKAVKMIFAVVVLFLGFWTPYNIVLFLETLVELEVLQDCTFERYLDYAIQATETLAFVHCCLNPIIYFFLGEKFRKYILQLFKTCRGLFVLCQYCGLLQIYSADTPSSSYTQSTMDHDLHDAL

Estrogen receptor = target: T2, Estrogen receptor (Homo sapiens, UniProt P03372); conditions: sf9; further: in other assays of this panel Not Active means under 50% inhibition at 10 µM
T2 sequence (P03372 whole entry): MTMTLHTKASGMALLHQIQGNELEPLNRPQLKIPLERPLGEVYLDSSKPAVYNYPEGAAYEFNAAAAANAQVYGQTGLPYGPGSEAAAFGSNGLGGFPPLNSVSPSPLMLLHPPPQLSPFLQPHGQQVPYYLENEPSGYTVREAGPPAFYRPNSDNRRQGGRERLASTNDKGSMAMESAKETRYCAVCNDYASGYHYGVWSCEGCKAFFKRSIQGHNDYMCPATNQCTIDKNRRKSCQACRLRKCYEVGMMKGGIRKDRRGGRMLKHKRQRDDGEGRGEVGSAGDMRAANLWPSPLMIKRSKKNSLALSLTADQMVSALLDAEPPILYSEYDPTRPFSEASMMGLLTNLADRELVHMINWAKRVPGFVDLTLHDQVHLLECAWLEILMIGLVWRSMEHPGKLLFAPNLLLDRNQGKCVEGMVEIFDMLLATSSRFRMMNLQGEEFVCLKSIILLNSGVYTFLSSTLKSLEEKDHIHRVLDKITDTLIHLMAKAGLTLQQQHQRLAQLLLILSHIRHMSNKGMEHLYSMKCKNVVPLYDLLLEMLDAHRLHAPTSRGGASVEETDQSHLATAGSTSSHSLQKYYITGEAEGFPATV

[2] = target: Receptor tyrosine-protein kinase erbB-2 (Homo sapiens, UniProt P04626); test: biochemical; type: cell-based, Insect cells;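 further: inhibition of HER2 kinase enzyme activity, measured with Poly(Glu:Tyr) as the phosphorylation substrate; in other assays of this panel Not Active means under 50% inhibition at 10 µM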
[3] = target: T3, C-X-C chemokine receptor type 1 (Homo sapiens, UniProt P25024); further: in other assays of this panel Not Active means under 50% inhibition at 10 µM
T3 sequence (P25024 whole entry): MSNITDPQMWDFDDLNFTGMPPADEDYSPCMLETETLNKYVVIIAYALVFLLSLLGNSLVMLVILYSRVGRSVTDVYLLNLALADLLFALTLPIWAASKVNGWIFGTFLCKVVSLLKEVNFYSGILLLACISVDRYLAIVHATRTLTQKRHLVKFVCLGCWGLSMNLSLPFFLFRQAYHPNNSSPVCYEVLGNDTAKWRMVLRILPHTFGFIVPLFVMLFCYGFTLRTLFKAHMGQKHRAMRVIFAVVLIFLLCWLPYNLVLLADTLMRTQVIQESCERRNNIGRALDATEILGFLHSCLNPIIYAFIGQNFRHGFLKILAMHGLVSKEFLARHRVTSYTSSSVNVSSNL

Nitric oxide synthase 1 = Nitric oxide synthase 1 (Rattus norvegicus, UniProt P29476); type: tissue-based, Cerebellum; further: in other assays of this panel Not Active means under 50% inhibition at 10 µM
[4] = target: Beta-1 adrenergic receptor (Homo sapiens, UniProt P08588); test: DRUGMATRIX: Adrenergic beta1 radioligand binding (ligand: [125I] Cyanopindolol); type: cell membranes, CHO-K1, Membrane; conditions: cho-k1; Not Active = under 50% inhibition at 10 µM
[5] = DRUGMATRIX: ATPase, Na+/K+ enzyme inhibition (substrate: ATP); type: tissue-based, Sus scrofa, Heart; conditions: Not Active = under 50% inhibition at 10 µM
[6] = DRUGMATRIX: GABAA, Flunitrazepam, Central radioligand binding (ligand: [3H] Flunitrazepam); type: cell membranes, Rattus norvegicus, Wistar, Brain, Membrane; conditions: Not Active = under 50% inhibition at 10 µM

Sequence of Nitric oxide synthase 1 (P29476 whole entry): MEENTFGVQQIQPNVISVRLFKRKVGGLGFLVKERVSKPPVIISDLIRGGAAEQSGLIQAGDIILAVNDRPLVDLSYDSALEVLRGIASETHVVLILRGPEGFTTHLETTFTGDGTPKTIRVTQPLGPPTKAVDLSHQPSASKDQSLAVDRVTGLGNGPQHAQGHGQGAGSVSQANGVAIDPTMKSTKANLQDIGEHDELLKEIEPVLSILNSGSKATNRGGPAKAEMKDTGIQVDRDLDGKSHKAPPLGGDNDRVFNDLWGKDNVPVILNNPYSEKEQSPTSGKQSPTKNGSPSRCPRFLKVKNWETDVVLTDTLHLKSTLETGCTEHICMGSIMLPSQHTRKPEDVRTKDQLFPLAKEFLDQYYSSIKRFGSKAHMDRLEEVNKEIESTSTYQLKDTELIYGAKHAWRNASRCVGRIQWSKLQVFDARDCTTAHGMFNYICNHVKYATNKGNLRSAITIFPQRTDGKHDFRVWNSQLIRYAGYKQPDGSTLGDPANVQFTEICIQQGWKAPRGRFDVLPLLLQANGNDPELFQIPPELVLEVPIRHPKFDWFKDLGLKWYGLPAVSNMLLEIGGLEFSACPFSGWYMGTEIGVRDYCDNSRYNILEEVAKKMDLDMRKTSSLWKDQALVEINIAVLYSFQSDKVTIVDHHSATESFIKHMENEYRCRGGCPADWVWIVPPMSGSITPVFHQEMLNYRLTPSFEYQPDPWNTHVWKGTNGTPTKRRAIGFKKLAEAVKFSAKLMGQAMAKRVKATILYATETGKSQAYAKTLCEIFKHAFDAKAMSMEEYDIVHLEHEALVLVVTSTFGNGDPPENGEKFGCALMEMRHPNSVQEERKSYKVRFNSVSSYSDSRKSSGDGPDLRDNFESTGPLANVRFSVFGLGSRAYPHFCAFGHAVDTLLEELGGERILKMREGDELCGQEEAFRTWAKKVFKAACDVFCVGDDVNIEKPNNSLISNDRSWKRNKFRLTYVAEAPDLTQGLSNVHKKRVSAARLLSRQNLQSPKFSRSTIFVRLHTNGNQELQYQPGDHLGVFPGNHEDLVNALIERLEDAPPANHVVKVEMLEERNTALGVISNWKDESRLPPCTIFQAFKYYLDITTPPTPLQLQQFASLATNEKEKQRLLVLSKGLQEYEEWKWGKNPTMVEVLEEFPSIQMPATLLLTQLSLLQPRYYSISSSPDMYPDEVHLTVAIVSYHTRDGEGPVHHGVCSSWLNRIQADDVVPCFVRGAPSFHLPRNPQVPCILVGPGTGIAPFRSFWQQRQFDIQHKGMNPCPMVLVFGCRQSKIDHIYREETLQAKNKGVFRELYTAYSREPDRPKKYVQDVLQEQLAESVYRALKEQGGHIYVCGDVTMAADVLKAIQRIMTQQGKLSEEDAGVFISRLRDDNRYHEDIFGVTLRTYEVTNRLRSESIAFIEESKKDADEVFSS
Sequence of Beta-1 adrenergic receptor (P08588 whole entry): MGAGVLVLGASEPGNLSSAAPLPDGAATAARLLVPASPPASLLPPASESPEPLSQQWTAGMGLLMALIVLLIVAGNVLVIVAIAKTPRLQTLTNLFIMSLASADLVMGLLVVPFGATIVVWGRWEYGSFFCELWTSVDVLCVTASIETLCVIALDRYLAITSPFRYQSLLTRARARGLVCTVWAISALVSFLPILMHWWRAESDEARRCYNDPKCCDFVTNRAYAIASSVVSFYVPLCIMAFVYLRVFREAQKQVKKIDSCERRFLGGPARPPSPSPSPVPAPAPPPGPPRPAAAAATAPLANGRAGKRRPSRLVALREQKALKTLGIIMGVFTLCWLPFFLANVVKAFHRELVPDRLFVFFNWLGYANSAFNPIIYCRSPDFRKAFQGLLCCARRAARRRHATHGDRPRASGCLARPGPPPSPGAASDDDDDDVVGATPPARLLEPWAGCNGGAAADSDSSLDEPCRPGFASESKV

Compound	IC50 [1]	IC50 (Estrogen receptor)	IC50 ([2]; insect cells)	IC50 [3]	IC50 (Nitric oxide synthase 1)	IC50 [4]	IC50 [5]	Ki [5]	IC50 [6]	Ki [6]	IC50 ([2]; read-out: IC50) [nM]	IC50 ([6]; read-out: IC50) [nM]	Ki ([6]; read-out: Ki) [nM]	Ki [1]	Ki (Estrogen receptor)	Ki ([2]; insect cells)	Ki [3]	Ki (Nitric oxide synthase 1)	Ki [4]
Cc1c(C)c2c(c(C)c1O)CCC(C)(CN1CCN(c3cc(N4CCCC4)nc(N4CCCC4)n3)CC1)O2 (stereo not given)	Not Active	Not Active	Not Active	Not Active	Not Active	Not Active	Not Active	Not Active	Not Active	Not Active									
COc1ccc(CCN(C)CCCC(C#N)(c2ccc(OC)c(OC)c2)C(C)C)cc1OC (stereo not given)	Not Active	Not Active	Not Active	Not Active	Not Active	Not Active	Not Active	Not Active	Not Active	Not Active									
CC(C)Cc1ccc([C@@H](C)C(=O)O)cc1 [(R)-IBUPROPHEN]	Not Active	Not Active	Not Active	Not Active	Not Active	Not Active	Not Active	Not Active	Not Active	Not Active									
CN(C)CCOC(c1ccccc1)c1ccccc1 [DIPHENHYDRAMINE]	Not Active	Not Active	Not Active	Not Active	Not Active	Not Active													
Clc1ccc(COC(Cn2ccnc2)c2ccc(Cl)cc2Cl)cc1 (stereo not given) [ECONAZOLE]	Not Active	Not Active		Not Active	Not Active						13900								
Fc1ccc(C(c2ccc(F)cc2)N2CCN(C/C=C/c3ccccc3)CC2)cc1 [FLUNARIZINE]	Not Active	Not Active	Not Active	Not Active	Not Active	Not Active													
Cc1ccc(NC(=O)c2ccc(CN3CCN(C)CC3)cc2)cc1Nc1nccc(-c2cccnc2)n1 [IMATINIB]	Not Active	Not Active		Not Active	Not Active	Not Active													
CNC1(c2ccccc2Cl)CCCCC1=O (stereo not given) [KETAMINE]	Not Active	Not Active	Not Active	Not Active	Not Active	Not Active	Not Active	Not Active	Not Active	Not Active									
N#Cc1ccc(C(c2ccc(C#N)cc2)n2cncn2)cc1 [LETROZOLE]	Not Active	Not Active	Not Active	Not Active	Not Active	Not Active	Not Active	Not Active	Not Active	Not Active									
O=C1Nc2ccc(Cl)cc2C(c2ccccc2Cl)=NC1O (stereo not given) [LORAZEPAM]	Not Active	Not Active	Not Active	Not Active	Not Active	Not Active	Not Active	Not Active				6.35	5.18						
CO[C@@H]1[C@@H](OC)[C@H](C)[C@@](O)(CC(=O)O)O[C@H]1[C@H](C)[C@H]1O[C@@]2(CC[C@@](C)([C@H]3CC[C@@](C)([C@@H]4O[C@@H]([C@H]5O[C@](C)(O)[C@H](C)C[C@@H]5C)C[C@@H]4O[C@@H]4C[C@H](OC)[C@@H](OC)[C@H](C)O4)O3)O2)C[C@H](O)[C@H]1C [MADURAMICIN ACID]	Not Active	Not Active	Not Active	Not Active	Not Active	Not Active	Not Active	Not Active	Not Active	Not Active									
Cc1cccc(C)c1OCC(C)N (stereo not given) [MEXILETINE]	Not Active	Not Active	Not Active	Not Active	Not Active	Not Active	Not Active	Not Active	Not Active	Not Active									
Nc1cc(N2CCCCC2)nc(N)[n+]1[O-] [MINOXIDIL]	Not Active	Not Active	Not Active	Not Active	Not Active	Not Active	Not Active	Not Active	Not Active	Not Active									
CO[C@H]1/C=C/O[C@@]2(C)Oc3c(C)c(O)c4c(O)c(c(/C=N/N5CCN(C6CCCC6)CC5)c(O)c4c3C2=O)NC(=O)/C(C)=C\C=C\[C@H](C)[C@H](O)[C@@H](C)[C@@H](O)[C@@H](C)[C@H](OC(C)=O)[C@@H]1C [RIFAPENTINE]	Not Active	Not Active	Not Active	Not Active	Not Active	Not Active	Not Active	Not Active	Not Active	Not Active									
CCCCOc1cc(CC2CNC(=O)N2)ccc1OC (stereo not given) [RO-201724]	Not Active	Not Active	Not Active	Not Active	Not Active	Not Active	Not Active	Not Active	Not Active	Not Active									
O=C(Oc1ccccc1C(=O)O)c1ccccc1O [SALSALATE]	Not Active	Not Active	Not Active	Not Active	Not Active	Not Active	Not Active	Not Active	Not Active	Not Active									
CN[C@H]1CC[C@@H](c2ccc(Cl)c(Cl)c2)c2ccccc21 [SERTRALINE]	Not Active	Not Active	Not Active	Not Active	Not Active	Not Active													
O=C1C(CC[S+]([O-])c2ccccc2)C(=O)N(c2ccccc2)N1c1ccccc1 (stereo not given) [SULFINPYRAZONE]	Not Active	Not Active	Not Active	Not Active	Not Active	Not Active	Not Active	Not Active	Not Active	Not Active									
NC(=O)N1C(=O)/C(=C(\O)c2cccs2)c2cc(Cl)ccc21 [TENIDAP]	Not Active	Not Active	Not Active	Not Active	Not Active	Not Active	Not Active	Not Active	Not Active	Not Active									
COc1cc2nc(N3CCN(C(=O)C4CCCO4)CC3)nc(N)c2cc1OC (stereo not given) [TERAZOSIN]	Not Active	Not Active	Not Active	Not Active	Not Active	Not Active	Not Active	Not Active	Not Active	Not Active									
CCCCNc1ccc(C(=O)OCCN(C)C)cc1 [TETRACAINE]	Not Active		Not Active	Not Active	Not Active	Not Active	Not Active	Not Active	Not Active	Not Active									
Cn1c(=O)c2nc[nH]c2n(C)c1=O.O [THEOPHYLLINE]	Not Active		Not Active	Not Active	Not Active	Not Active	Not Active	Not Active	Not Active	Not Active									
SODIUM ORTHOVANAD	Not Active	Not Active	Not Active	Not Active	Not Active	Not Active			Not Active	Not Active				Not Active	Not Active	Not Active	Not Active	Not Active	Not Active
